Common to all, as to assay: NCI anticancer screen, dose series, 48 h
For assay [1], the system named is SK-MEL-2 melanoma.
The test system of assay [2] is PC-3 prostate.
Assay [3] relates to OVCAR-8 ovarian.
Assay [4] concerns HCT-116 colon.
The test system of assay [5] is A498 renal.
For assay [6], the system named is A549 NSCLC.
Assay [7] has as its system HCT-15 colon.
Assay [8] has as its system CCRF-CEM leukemia.
Assay [9] deals with K-562 leukemia.
Assay [10] relates to T-47D breast.

The source of these data is PubChem BioAssay (NCI).

Values joined by “and” are separate entries in the source; they are usually repeats but may differ in a detail not shown here. Equal entries are not always repeated.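 Growth conditions: 96-well plates. Treatment: test compound, 48 hours, 5 concentrations. Analysis: linear interpolation between bracketing concentrations; unreached endpoints set to highest concentration. Here, GI50 denotes the concentration required for 50% inhibition of growth. TGI marks complete inhibition of growth.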

Turning to `O=P(Oc1ccccc1)(Oc1ccccc1)C(O)c1ccccc1` (stereo not given), the GI50 is 81.4 µM in assay [1]; 35.8 µM in assay [2]; > 100 µM in assay [3]; 65.9 µM in [4]; 34.8 µM in assay [5]; > 100 µM in assay [6]. For the same molecule, the GI50 was > 100 µM in assay [7], > 100 µM in assay [8], 46.8 µM in assay [9] and 25.2 µM in assay [10]. The TGI in assay [1], in [2], in assay [3], in [4], in [5] and in [6] was > 100 µM throughout. Further, the TGI in [7], in [8], in assay [9] and in assay [10] was > 100 µM throughout.
As for `COC(=O)/C=C1\SC(=Nc2ccc(C(F)(F)F)cc2)N(CCc2c[nH]c3ccccc23)C1=O`, the GI50 in [1] is 1.65 µM; in [2] it was 1.62 µM; in [3], 1.74 µM; in [4], 1.21 µM; in assay [5], 1.5 µM; in assay [6] it was 2.01 µM. The GI50 is 1.38 µM in assay [7], 1.95 µM in assay [8], 1.66 µM in assay [9] and 1.19 µM in assay [10]. Moreover, the TGI was 3.43 µM in assay [1]; 3.32 µM in assay [2]; 4.6 µM in assay [3]; 2.47 µM in assay [4]; 2.98 µM in assay [5]; 4.8 µM in [6]. Also, the TGI in assay [7] came to 2.95 µM; in [8], 7.22 µM; in assay [9], 6.42 µM; in assay [10], 3.17 µM.
In the case of `O=C(O)C1CCCN1Cc1c[nH]c2ccccc12` (stereo not given), the TGI in assay [1], in assay [2], in assay [3], in assay [4], in assay [5] and in [6] was > 100 µM each time. Further, the TGI in assay [7], in [8], in assay [9] and in [10] was > 100 µM throughout.
Take `O=C1NC(=O)[C@@H](c2cn3c4c(cccc24)CCC3)[C@@H]1c1c[nH]c2ccccc12`: the GI50 in assay [1] was 0.37 µM and 0.57 µM; in assay [2] it was 0.411 µM and 0.521 µM; in assay [3] it was 0.492 µM and 0.561 µM; in assay [4], 0.377 µM and 0.458 µM; in assay [5] it was 0.283 µM and 0.292 µM; in assay [6], 0.617 µM and 0.516 µM. In addition, the GI50 in assay [7] is 0.338 µM and 0.505 µM; in assay [8] it was 0.288 µM and 0.429 µM; in assay [9] it was 0.182 µM and 0.312 µM; in assay [10], 0.456 µM and 0.625 µM. The TGI in [1] is > 10 µM and 20.8 µM; in assay [2], > 10 µM and 37.4 µM; in [3], > 10 µM and 14.3 µM; in [4], > 6.16 µM and 10.6 µM; in assay [5] it was > 2.68 µM and 3.22 µM; in [6], > 10 µM and 16.4 µM. Moreover, the TGI in assay [7] is > 10 µM and 14.9 µM; in assay [8], > 10 µM and 41.2 µM; in assay [9], > 10 µM and 18.6 µM; in [10], > 10 µM and 32.4 µM.
Take `COc1ccc(C(=O)c2cc(OC)c(OC)c(OC)c2)cc1/C=C/C(=O)c1ccc(O)cc1`: the GI50 in assay [1] is 5.01 µM; in [2] it was 1.69 µM; in assay [3], 4.48 µM; in assay [4], 1.58 µM; in assay [5] it was 3.14 µM; in assay [6], 18.7 µM. Moreover, the GI50 was 2.15 µM in assay [7], 0.872 µM in assay [8], 0.357 µM in assay [9] and 19 µM in assay [10]. Besides, the TGI was 26.5 µM in assay [1]; 4.71 µM in assay [2]; > 100 µM in [3]; 3.33 µM in assay [4]; 15.1 µM in assay [5]; > 100 µM in assay [6]. The TGI in [7] was 7.42 µM; in [8] it was > 100 µM; in [9], > 100 µM; in assay [10] it was > 100 µM.
For `C=C(CN1CCc2ccccc2C1)c1ccc(/C=C/C(=O)Nc2ccccc2N)cc1`, the GI50 in assay [1] was 7.51 µM; in assay [2] it was 4.05 µM; in assay [3] it was 5.86 µM; in assay [4], 1.59 µM; in [5] it was 16.4 µM; in assay [6], 1.79 µM. Besides, the GI50 in [7] is 1.69 µM; in [8] it was 1.04 µM; in assay [9] it was 5.49 µM; in assay [10], 10.5 µM. In addition, the TGI in assay [1] was > 100 µM; in [2] it was > 100 µM; in assay [3] it was > 100 µM; in [4] it was 5.7 µM; in assay [5], 36.8 µM; in [6], > 100 µM. The TGI in assay [7] is 62.9 µM; in [8], > 100 µM; in [9], > 100 µM; in assay [10], > 100 µM.
